From patent US20190117574A1, “SURFACE-MODIFIED MICROSPHERE COMPOSITION, APPLICATION OF THE SAME, AND METHOD OF PREPARING THE SAME” (INSTITUTE OF NUCLEAR ENERGY RESEARCH, ATOMIC ENERGY …, priority 2017, published 2019) come the findings set out here.

This assay has as its system mice with FCA-induced arthritis. Briefly: Treatment of mice with FCA-induced arthritis: ankle joint diameter. The assay is classed as in vivo, mice (C57BL/6). The following applies: 10 mg/kg/ml, subdermal injection around right tibiotarsal joint on day 21 after FCA, FIG. 8. As for the experimental part: Animal Model Created with Arthritis Induced by Freund's Complete Adjuvant (FCA) 24 male mice (C57BL/6, purchased from the National Laboratory Animal Center, Taipei, Taiwan) weighing 20-25 g (8 weeks old) are provided. The mice are each given a subdermal injection of 0.1 ml of FCA at the tibiotarsal joint of the right hind leg and 0.05 ml of FCA on the subplantar side of the right hind paw to induce the development of arthritis. Afterward, thermal images are taken of the mice with a thermal imaging camera on day 0, day 3, and day 14 after injected with FCA, respectively. The diameters of ankle joints of left and right hind legs of the mice are measured with a vernier caliper are surveyed and recorded for 2 or 3 days. The mice with FCA-induced arthritis are administered with a neutrophil elastase 680 FAST probe through trail veins on day 21 and observed with IVIS (non-invasion in vivo imaging system) to confirm whether neutrophil elastase is produced at the location where FCA is injected.
The animal model created with FCA-induced arthritis is described above. 24 mice which conform to the animal model created with FCA-induced arthritis are provided. […]
Upon completion of the subdermal injection of the reagents into the four groups of mice, the diameters of left and right ankle joints and body weight of the mice are measured with a vernier caliper and recorded for 2 or 3 days.

Consider `O=C(O)Cc1ccccc1Nc1c(Cl)cccc1Cl` [free diclofenac sodium, diclofenac sodium], for which the “reduction of swelling of ankles (ankle joint diameter) compared with saline” value is reported as “more effective than saline in reducing the swelling of the mice's ankles”.
